Experiments:
[1] = Evaluation of hygroscopicity (DVS; dynamic vapor sorption); format: physicochemical; conditions: for Weight increase at relative humidity of 90% (%): DVS, 25° C., relative to weight at 0% RH after drying
Method: [3] Evaluation of Hygroscopicity (DVS; Dynamic Vapor Sorption)
Device: SGA-100 manufactured by TA Instruments,
Sample amount: 10 to 20 mg,
Measurement temperature: 25° C.,
Drying before measurement: 60° C., 1 hour,
Starting humidity: 0% RH,
Maximum humidity: 90% RH,
Equilibrium criteria: weight change rate in 5 minutes is 0.01% or less,
Sampling interval: 30 seconds,
Data recording interval: two minutes or time at which weight change rate become 0.01% or more.
Various acid addition salts of the compounds A produced in Examples (Examples 7, 8, 9, 10, 11, 12, 13, and 14) and the compound of the present invention (Example 6) were subjected to hygroscopicity evaluation. Based on the measurement conditions shown in [3] in [Study of acid addition salt of compound A], hygroscopicity was evaluated. Sample weight was recorded after the weight of the sample in the relative humidity set every 10% became equilibrium. After drying, the change amount (%) was converted on the basis of the weight when the relative humidity was 0%.

[2] = Light stability evaluation of active pharmaceutical ingredient; format: physicochemical; conditions: for residual rate %: active pharmaceutical ingredient, 2500 Lux D65 lamp, 25° C., 20 days
Method: (§1) Ethanesulfonate of the compound A produced in Example 6 and p-toluenesulfonate of the compound A produced in Example 9 were evaluated in terms of the light stability. Each acid addition salt was weighed in a laboratory tube in about 1.8 to 2.2 mg, capped with a plastic cap and wrapped with a parafilm. A sample placed in the transparent laboratory tube was used as an exposure sample, a sample placed in the brown laboratory tube was used as a light shielded sample, and a sample placed in the brown laboratory tube and further covered with aluminum foil was used as an aluminum foil completely shielded sample. Each sample was exposed to light whose total illumination of 1200000 Lux-h or more and total near ultraviolet radiation energy of 200 W·h/m^2 or more by exposing to 2500 Lux D65 lamp at 25° C. for 20 days.
Detector: ultraviolet spectrometer (measurement wavelength: 215 nm),
Column: Imtakt Unison UK-C18 (3 μm, inner diameter: 4.6 mm×150 mm),
Column temperature: 40° C.,
Mobile phase: A liquid: 20 mM KH2PO4 aq. (pH 3.0), B liquid: CH3CN,
Flow rate: 1.0 mL/minute,
Area measurement range: 60 minutes
Sample concentration: 0.5 mg/mL.
(§2) The area percentage of ethanesulfonate of the compound A and p-toluenesulfonate of the compound A which were not exposed to light and stored at −20° C., and each acid addition salt of the compound A subjected to the above light stability test were calculated under the measurement conditions mentioned above. Next, in each acid addition salt of the compound A, the rate of the area percentage of the acid addition salt of the compound A which was not exposed to light and stored at −20° C. (area percentage of acid addition salt of compound A exposed to light for 20 days/area percentage of acid addition salt of compound A which is not exposed to light and stored at −20° C.×100) was calculated as the residual rate of each compound.

[3] = Light stability evaluation of simple formulation (mixed with CEOLUS PH-301); format: physicochemical; conditions: simple formulation with CEOLUS PH-301 1 to 5 (weight ratio), 2500 Lux D65 lamp, 25° C., 20 days
Method: as §1, §2
Each acid addition salt of the compound A, regarding to ethanesulfonate of the compound A produced in Example 6 and p-toluenesulfonate of the compound A produced in Example 9, was mixed with CEOLUS (registered trademark) PH-301 (Asahi Kasei Corporation) in a mixing ratio of 1 to 5 (weight ratio) on a medicine paper with a spatula to prepare a simple formulation. The simple formulation was weighed into a laboratory tube in about 3 mg, capped with a plastic cap, and wrapped with a parafilm. Hereinafter, the light exposure condition of the compound, and the measurement conditions were corresponding to the […] of the stability of the active pharmaceutical ingredient of above (1).

CYP = conditions: mentioned in Patent Literature 5 (WO2015/012298); cited from earlier work
Axl = target: T1, Axl (Homo sapiens, UniProt P30530); conditions: mentioned in Patent Literature 5 (WO2015/012298); cited from earlier work
T1 sequence (P30530 26-894): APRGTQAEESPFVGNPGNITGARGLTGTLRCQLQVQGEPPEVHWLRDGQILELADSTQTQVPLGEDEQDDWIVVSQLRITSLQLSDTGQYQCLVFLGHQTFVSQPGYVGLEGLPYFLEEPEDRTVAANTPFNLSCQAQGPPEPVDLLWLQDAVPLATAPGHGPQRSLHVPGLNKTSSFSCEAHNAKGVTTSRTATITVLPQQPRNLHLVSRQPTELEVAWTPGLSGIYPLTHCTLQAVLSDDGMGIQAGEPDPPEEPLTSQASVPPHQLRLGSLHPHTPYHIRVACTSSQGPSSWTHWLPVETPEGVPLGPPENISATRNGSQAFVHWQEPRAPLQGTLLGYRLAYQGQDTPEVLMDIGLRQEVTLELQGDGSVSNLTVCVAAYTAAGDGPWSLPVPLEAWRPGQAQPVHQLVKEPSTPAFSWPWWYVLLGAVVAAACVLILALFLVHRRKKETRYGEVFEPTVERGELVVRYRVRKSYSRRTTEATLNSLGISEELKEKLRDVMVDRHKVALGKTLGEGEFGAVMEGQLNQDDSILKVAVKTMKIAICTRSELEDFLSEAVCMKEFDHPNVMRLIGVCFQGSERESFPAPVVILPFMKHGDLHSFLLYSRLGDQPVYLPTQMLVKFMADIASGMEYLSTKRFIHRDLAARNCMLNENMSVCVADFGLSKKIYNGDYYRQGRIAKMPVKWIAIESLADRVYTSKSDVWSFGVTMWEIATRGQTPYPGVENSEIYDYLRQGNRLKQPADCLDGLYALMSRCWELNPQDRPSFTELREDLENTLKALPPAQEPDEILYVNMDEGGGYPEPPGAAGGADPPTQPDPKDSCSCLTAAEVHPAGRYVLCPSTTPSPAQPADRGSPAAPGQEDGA

[4] = Brown bottle (light shielded sample)
[5] = Transparent bottle (exposure sample)

In the case of `COc1cc2nccc(Oc3ccc(NC(=O)c4cc5c(n(-c6ccccc6)c4=O)CCCC5=O)nc3)c2cc1OC.O=S(=O)(O)O` [Sulfate, N-{5-[(6,7-dimethoxy-4-quinolinyl)oxy]-2-pyridinyl}-2,5-dioxo-1-phenyl-1,2,5,6,7,8-hexahydro-3-quinolinecarboxamide sulfate], the “Weight increase at relative humidity of 90% (%)” value [1] is reported as 7.2%.
In the case of `COc1cc2nccc(Oc3ccc(NC(=O)c4cc5c(n(-c6ccccc6)c4=O)CCCC5=O)nc3)c2cc1OC.Cc1ccc(S(=O)(=O)O)cc1` [P-toluenesulfonate, N-{5-[(6,7-dimethoxy-4-quinolinyl)oxy]-2-pyridinyl}-2,5-dioxo-1-phenyl-1,2,5,6,7,8-hexahydro-3-quinolinecarboxamide p-toluenesulfonate], the residual rate % ([2]; Aluminum foil shielding) is reported as 100.6%, the residual rate % [2, 4] is reported as 92.7% and the residual rate % [2, 5] is reported as 86.1%. It also gave a residual rate % ([3]; Aluminum foil shielding) of 99.9%, a residual rate % ([3]; Brown bottle) of 83.3% and a residual rate % ([3]; Transparent bottle) of 40.7%. The “Weight increase at relative humidity of 90% (%)” value [1] was 2.6%.
For `COc1cc2nccc(Oc3ccc(NC(=O)c4cc5c(n(-c6ccccc6)c4=O)CCCC5=O)nc3)c2cc1OC.CS(=O)(=O)O` [Methanesulfonate, N-{5-[(6,7-dimethoxy-4-quinolinyl)oxy]-2-pyridinyl}-2,5-dioxo-1-phenyl-1,2,5,6,7,8-hexahydro-3-quinolinecarboxamide methanesulfonate], the “Weight increase at relative humidity of 90% (%)” value [1] was 4.0%.
In the case of `COc1cc2nccc(Oc3ccc(NC(=O)c4cc5c(n(-c6ccccc6)c4=O)CCCC5=O)nc3)c2cc1OC.O=S(=O)(O)c1ccccc1` [Benzensuplhonate, N-{5-[(6,7-dimethoxy-4-quinolinyl)oxy]-2-pyridinyl}-2,5-dioxo-1-phenyl-1,2,5,6,7,8-hexahydro-3-quinolinecarboxamide benzenesulfonate], the “Weight increase at relative humidity of 90% (%)” value [1] is reported as 7.2%.
With `COc1cc2nccc(Oc3ccc(NC(=O)c4cc5c(n(-c6ccccc6)c4=O)CCCC5=O)nc3)c2cc1OC.O=S(=O)(O)CCO` [Isethionate, N-{5-[(6,7-dimethoxy-4-quinolinyl)oxy]-2-pyridinyl}-2,5-dioxo-1-phenyl-1,2,5,6,7,8-hexahydro-3-quinolinecarboxamide isethionate] the “Weight increase at relative humidity of 90% (%)” value [1] was 14.5%.
`CCS(=O)(=O)O.COc1cc2nccc(Oc3ccc(NC(=O)c4cc5c(n(-c6ccccc6)c4=O)CCCC5=O)nc3)c2cc1OC` [Ethanesulfonate, N-{5-[(6,7-dimethoxy-4-quinolinyl)oxy]-2-pyridinyl}-2,5-dioxo-1-phenyl-1,2,5,6,7,8-hexahydro-3-quinolinecarboxamide ethanesulfonate] showed a residual rate % ([2]; Aluminum foil shielding) of 100.0%, a residual rate % [2, 4] of 99.5% and a residual rate % [2, 5] of 94.5%. For the same molecule, the “stability to light (in words)” value ([2]; compared with p-toluenesulfonate of the compound A, API and simple formulation) was “more excellent also in terms of the stability to light”, the residual rate % ([3]; Aluminum foil shielding) was 99.7% and the residual rate % ([3]; Brown bottle) was 98.4%. For the same molecule, the residual rate % ([3]; Transparent bottle) was 59.3%, the “Weight increase at relative humidity of 90% (%)” value [1] was 0.7% and the “rate of weight change upon moisture absorption (in words)” value ([1]; among various acid addition salts of the compound A) was “small rate of weight change upon moisture absorption”.
With `COc1cc2nccc(Oc3ccc(NC(=O)c4cc5c(n(-c6ccccc6)c4=O)CCCC5=O)nc3)c2cc1OC.Cl` [Hydrochloride, N-{5-[(6,7-dimethoxy-4-quinolinyl)oxy]-2-pyridinyl}-2,5-dioxo-1-phenyl-1,2,5,6,7,8-hexahydro-3-quinolinecarboxamide hydrochloride] the “Weight increase at relative humidity of 90% (%)” value [1] was 8.0%.
For `COc1cc2nccc(Oc3ccc(NC(=O)c4cc5c(n(-c6ccccc6)c4=O)CCCC5=O)nc3)c2cc1OC` [compound A, N-{5-[(6,7-dimethoxy-4-quinolinyl)oxy]-2-pyridinyl}-2,5-dioxo-1-phenyl-1,2,5,6,7,8-hexahydro-3-quinolinecarboxamide], the “CYP inhibitory action (in words)” value (CYP) is given as “low CYP inhibitory action” and the “Axl-selective inhibiting activity (in words)” value (Axl) is given as “Axl-selective inhibiting activity”.
In the case of `COc1cc2nccc(Oc3ccc(NC(=O)c4cc5c(n(-c6ccccc6)c4=O)CCCC5=O)nc3)c2cc1OC.O=P(O)(O)O` [Phosphate, N-{5-[(6,7-dimethoxy-4-quinolinyl)oxy]-2-pyridinyl}-2,5-dioxo-1-phenyl-1,2,5,6,7,8-hexahydro-3-quinolinecarboxamide phosphate], the “Weight increase at relative humidity of 90% (%)” value [1] is reported as 5.5%.
In the case of `COc1cc2nccc(Oc3ccc(NC(=O)c4cc5c(n(-c6ccccc6)c4=O)CCCC5=O)nc3)c2cc1OC.O=S(=O)(O)CCS(=O)(=O)O` [Ethanedisulfonate, N-{5-[(6,7-dimethoxy-4-quinolinyl)oxy]-2-pyridinyl}-2,5-dioxo-1-phenyl-1,2,5,6,7,8-hexahydro-3-quinolinecarboxamide ethanedisulfonate], the “Weight increase at relative humidity of 90% (%)” value [1] is reported as 46.4%.
